According to patent publication US10772876B2, “Enhancers of Notch signaling and the use thereof in the treatment of cancers and malignancies medicable by upregulation of Notch” (XENIOPRO GmbH, priority 2016, dated 2020):
Entries after “also recorded” stand apart in the source; their conditions may differ.

What was measured:
[1] = system: Notch1 full-length receptor; assay: Notch1 full-length receptor driven luciferase reporter assay (HeLa co-culture with DLL4 ligand expressing HeLa cells); type: cell-based; details: for Notch signaling relative to the DMSO control: control treatments, FIG. 1
Method: As used herein, the term “enhancing Notch signaling” refers to an effect on a cellular Notch-driven luciferase reporter assay, by which the Notch signaling enhancing properties of the compounds of the invention are determined. The Notch-driven luciferase reporter assay consists of HeLa cells engineered to express the Notch1 full length receptor, and to harbor a CSL-driven firefly luciferase expression construct as well as a Notch independent Renilla luciferase construct for the purpose of normalisation. These cells are co-cultured with engineered HeLa cells expressing the Notch ligand D114 to induce Notch signaling, thus to induce the expression of the firefly luciferase enzyme. The intensity of a luciferase-driven reporter signal is considered as a measure for Notch signaling.
A compound is considered as having an effect of enhancing Notch signaling if said compound results relative to DMSO in ≥1.5-fold increase, preferably in ≥2.0-fold increase, more preferably in ≥2.5-fold increase and most preferably in ≥3.0-fold increase of the Luciferase-driven reporter signal in the frame of the named Notch-dependent luciferase reporter assay.
FIG. 1. […] The indicated compounds were tested at 10 μM concentration in a Notch-driven luciferase reporter assay. HeLa cells had been engineered to express the Notch1 full-length receptor, the firefly luciferase (expression dependent on Notch signaling) and the renilla luciferase (expression independent on Notch signaling). Cells were co-cultured in a 96 well-plate with DLL4 ligand expressing HeLa cells to induce Notch signaling and simultaneously treated with DMSO or indicated compounds for 20 h. Notch signaling activation was then quantified by measuring luciferase-dependent luminescence intensities upon treatment with appropriate substrates. The firefly values were normalized against the renilla values to obtain the relative luminescence intensities (represented by the bars).
(§1) A brief description of the assay is given in the description of FIG. 1. If not stated differently, all assays were performed using a Notch1 full-length receptor driven reporter system. Values are normalized against DMSO. a) V126 (black rhombi) was tested at the indicated concentrations. […] The control readouts for DMSO (black), CB103 (white), V126 at 10 μM and V126 at 1 μM (diagonal lines) were taken as usual after incubation for 20 h. c) V126 was tested in combination with an equimolar amount of the y-secretase inhibitor DAPT or the Notch inhibitor CB103 at 10 μM concentration each. d) V126 and the indicated compounds were tested at 10 μM in a luciferase reporter assay driven by the Notch2 receptor isoform. e) V126 and the indicated compounds were tested at 10 μM in a luciferase assay driven by the constitutively active form of the Notch1 receptor (N1ICD, Notch1 intracellular domain).

SCC13 cells = assay: Involucrin protein expression in SCC13 cells (Western Blot); type: cell-based, human; details: 10 μM, 48 h, β-actin as loading control
Method: Cells were treated with DMSO or V126 at a concentration of 10 μM for 48 h. Total cell lysates were applied on Western Blot analysis using β-actin as loading control.
Notch activation in the skin is known to drive differentiation of keratinocytes resulting in the induction of differentiation markers such as involucrin (C. Nowell, Cold Spring Harb Perspect Med. 2013, 3, 12), (G. P. Dotto, Oncogene 2008, 27, 5115-5123). […] In the spleen, marginal zone B-cells (MZBs) and follicular B-cells (FoBs) are the two main types of mature B-cells, both of which develop from the same precursor cells, namely the transitional B-cells (TBs). Notch2 signaling was reported to play a crucial role in the development of MZBs (S. Pillai, Nat. Rev. Immunol. 2009, 9, 767-777) and increased Notch2 signaling in the spleen leads to an expansion of the MZB compartment (F. Hampel, Blood 2011, 118, 24, 6321-6331). In contrast, the development of FoBs is not dependent on Notch signaling. To evaluate the effect of V126 in vivo, C57BL/6N mice were injected intraperitoneally with 25 mg/kg V126 once a day for one week. The impact of V126 on the different B-cell compartments in these mice was analyzed by flow cytometry on splenocytes, showing that V126 was capable to double the number of MZBs as compared to the control, whereas the FoB numbers were not affected (FIG. 4).

[2] = system: Notch2 full-length receptor; assay: Luciferase reporter assay driven by the Notch2 receptor isoform (N2FL); type: cell-based; details: 10 μM, FIG. 2d
Method: as §1
(§2) To rule out that V126 is directly enhancing the activity of the luciferase enzyme, the Notch reporter assay was challenged by applying V126 treatment immediately prior to the readout. […] Moreover, the Notch-enhancing activity of V126 could be partially and completely rescued by combinational equimolar treatment with the γ-secretase inhibitor DAPT or the Notch inhibitor CB103, respectively, further confirming the ability of V126 to upregulate Notch signaling (FIG. 2c).

CD4 T cells = assay: IFN-γ production and secretion of CD4 T cells under Th1 polarizing conditions; type: cell-based, mice; details: 10 μM, 96 hours, intracellular IFN-γ and Elisa of culture supernatants
Method: FIGS. 5A-5C The Notch signaling enhancing compound V126 induces increased IFNy production and secretion in vitro. CD4 T cells isolated from naive CS7B/6 mice were cultured on plate bound α-CD3/α-CD28 (both 0.25μg/m1) under Th1 polarizing conditions (rlL-12, (5ng/ml) and anti-IL-4 (clone:11B11; […])) in the presence of DMSO, DAPT as y-secretase inhibitor and V126 at 10 μM. 96 hours after initiation of the culture, intracellular IFN-y levels a) and CD25 surface expression b) were assessed on PMA/lonomycin stimulated CD4 T cells. c) IFN-y cytokine levels were assessed in culture supernatants by Elisa under the same conditions as in a) and b).

[3] = system: N1ICD, Notch1 intracellular domain; assay: Luciferase assay driven by the constitutively active form of the Notch1 receptor (N1ICD); type: cell-based; details: 10 μM, FIG. 2e
Method: as §1, §2

luciferase enzyme = target: T1, luciferase enzyme (Photinus pyralis, UniProt P08659); assay: Direct influence on luciferase enzyme activity (treatment 5 min prior to readout of the Notch reporter assay); type: cell-based; details: 10 μM and 1 μM, 5 min prior to the readout, FIG. 2b
T1 construct: expressed in transfected cells; host or cells: HeLa cells engineered with Notch1 full-length receptor, firefly and Renilla luciferase constructs, co-cultured with DLL4-expressing HeLa cells
Method: as §1, §2

[4] = system: splenic marginal zone B-cells (MZB); assay: Splenic B-cell compartments in mice by flow cytometry; type: in vivo, C57BL/6N mice; details: 25 mg/kg intraperitoneal once a day for one week
Method: C57BL/6N mice were treated with 25 mg/kg V126 by intraperitoneal injection once a day for one week. a) Spleen cells were analyzed by flow cytometry. Shown are two representative plots of control (Ctrl., n=5) and V126 (n=4) treatments displaying the B220+cell (total B-cell) population. The gates encircle the respective MZB, FoB, and TB fractions with the corresponding numbers indicating the relative proportions (in percentage) of cells out of the B220+population. b) The bar diagrams quantify the relative MZB percentages from a) (left), and the recalculated total numbers of splenic MZBs (right). FoBs: Follicular B-cells, TBs: Transitional B-cells, see text.
Notch activation in the skin is known to drive differentiation of keratinocytes resulting in the induction of differentiation markers such as involucrin (C. Nowell, Cold Spring Harb Perspect Med. 2013, 3, 12), (G. P. Dotto, Oncogene 2008, 27, 5115-5123). […] In the spleen, marginal zone B-cells (MZBs) and follicular B-cells (FoBs) are the two main types of mature B-cells, both of which develop from the same precursor cells, namely the transitional B-cells (TBs). […] The impact of V126 on the different B-cell compartments in these mice was analyzed by flow cytometry on splenocytes, showing that V126 was capable to double the number of MZBs as compared to the control, whereas the FoB numbers were not affected (FIG. 4).

T1 sequence (P08659 whole entry): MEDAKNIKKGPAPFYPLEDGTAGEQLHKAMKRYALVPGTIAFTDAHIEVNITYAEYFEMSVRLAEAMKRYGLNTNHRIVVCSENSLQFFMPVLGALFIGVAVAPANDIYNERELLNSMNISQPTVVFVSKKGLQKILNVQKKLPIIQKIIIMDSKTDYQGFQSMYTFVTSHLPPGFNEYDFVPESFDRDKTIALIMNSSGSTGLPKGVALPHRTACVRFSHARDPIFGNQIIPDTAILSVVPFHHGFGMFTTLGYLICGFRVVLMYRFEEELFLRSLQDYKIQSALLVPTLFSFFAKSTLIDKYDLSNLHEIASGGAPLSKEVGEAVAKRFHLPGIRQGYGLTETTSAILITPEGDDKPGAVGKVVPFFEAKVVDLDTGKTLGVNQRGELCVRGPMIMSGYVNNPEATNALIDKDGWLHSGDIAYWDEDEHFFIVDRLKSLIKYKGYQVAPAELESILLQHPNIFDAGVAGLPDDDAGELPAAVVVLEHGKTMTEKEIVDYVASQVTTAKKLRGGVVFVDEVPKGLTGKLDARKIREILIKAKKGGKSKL

Q: With CC(C)(C)c1ccc(Oc2ccc(N)cn2)cc1 [CB103, reference compound] as the compound, how does the “Notch signaling relative to the DMSO control” value ([1]; 20 h) read?
A: decrease in Notch signaling

Q: Which “Notch signaling relative to the DMSO control” value ([1]; 20 h) does the source give for C[C@H](NC(=O)Cc1cc(F)cc(F)c1)C(=O)N[C@H](C(=O)OC(C)(C)C)c1ccccc1 [DAPT, reference compound] here?
A: decrease in Notch signaling

Q: Which “expression of the differentiation marker involucrin at the protein level” value (SCC13 cells) does the source give for CC(C)(C)c1ccc(Oc2ccc(C(=O)O)cc2)cc1 [V126, 4-(4-(tert-Butyl)phenoxy)benzoic acid] here?
A: increased protein expression

Q: And the “enhancement of Notch2 receptor driven signaling” value [2]?
A: enhance signaling derived from different Notch receptor isoforms

Q: What about the “IFNγ production and secretion” value (CD4 T cells) of the same compound?
A: increased

Q: And the “enhancement of N1ICD driven signaling” value [3]?
A: enhance the signaling cascade taking place downstream of ligand-mediated activation of Notch signaling

Q: What about the “luciferase values after short-term treatment immediately prior to the readout” value (luciferase enzyme) of the same compound?
A: in the range of the DMSO control level

Q: What about the “luciferase values after treatment for 20 h in the very same readout” value ([1]; 10 μM and 1 μM, 20 h, FIG. 2b) of the same compound?
A: expected upregulation

Q: What about the “rescue of the Notch-enhancing activity by combinational equimolar treatment with CB103” value ([1]; V126 plus Notch inhibitor CB103, 10 μM each, FIG. 2c) of the same compound?
A: completely

Q: And the “rescue of the Notch-enhancing activity by combinational equimolar treatment with DAPT” value ([1]; V126 plus γ-secretase inhibitor DAPT, 10 μM each, FIG. 2c)?
A: partially

Q: And the “enhancement of Notch signaling” value ([1]; concentration of 1↔M, FIG. 2a)?
A: strongly enhanced Notch signaling

Q: What about the “FoB (follicular B-cell) numbers” value [4] of the same compound?
A: not affected

Q: And the “number of splenic MZBs compared to the control” value [4]?
A: increase; also recorded: double

Q: With CCCC(CCC)C(=O)O [valproic acid, reference compound] as the compound, how does the “effect on Notch signaling” value ([1]; concentrations up to 40 μM, FIG. 2a) read?
A: did not show any effect
